Measured values from patent US7211557B2, “Use of GLP-1 analogs and derivatives administered peripherally in regulation of obesity” (Eli Lilly and Company, priority 1996, dated 2007).

Assays:
[1] = cited from earlier work
[2] = Continuous subcutaneous infusion of GLP-1(7-36) amide for four weeks in NIDDM patients, preceded and followed by two weeks of intensive insulin therapy: body weight; assay type: in vivo, human; settings: for body weight lost, average: four patients, mean±SEM
[3] = cited from earlier work; remark: listed apart in the source
[4] = test system: STC-1 cells; settings: exposure of STC-1 cells; cited from earlier work

## GLP-1(7-36) amide
[1]; acute intraperitoneal administration in rats
  food intake: does not affect food intake
[1]; intraperitoneal administration, even at relatively high doses
  early dark-phase feeding: does not affect early dark-phase feeding
[2]; during GLP-1 treatment (4 weeks)
  body weight lost, average: 3.5 ± 1.2 kg
[2]; mean±SEM of patients, GLP-1 infusion 1.2 pmol/kg/minute s.c., 4 weeks
  Weight Change: -3.5 ± 1.2 kg
[2]; mean±SEM of patients, after GLP-1 infusion 1.2 pmol/kg/minute s.c., 4 weeks
  Patient Weight: 92.9 ± 5.8 kg
[2]; patient four, GLP-1 infusion 1.2 pmol/kg/minute s.c., 4 weeks
  Weight Change: -3.0 kg
[2]; patient four, after GLP-1 infusion 1.2 pmol/kg/minute s.c., 4 weeks
  Patient Weight: 108.0 kg
[2]; patient one, GLP-1 infusion 1.2 pmol/kg/minute s.c., 4 weeks
  Weight Change: -7.0 kg
[2]; patient one, after GLP-1 infusion 1.2 pmol/kg/minute s.c., 4 weeks
  Patient Weight: 92.0 kg
[2]; patient three, GLP-1 infusion 1.2 pmol/kg/minute s.c., 4 weeks
  Weight Change: -1.9 kg
[2]; patient three, after GLP-1 infusion 1.2 pmol/kg/minute s.c., 4 weeks
  Patient Weight: 80.0 kg
[2]; patient two, GLP-1 infusion 1.2 pmol/kg/minute s.c., 4 weeks
  Weight Change: -2.0 kg
[2]; patient two, after GLP-1 infusion 1.2 pmol/kg/minute s.c., 4 weeks
  Patient Weight: 91.5 kg
[2]; peripheral administration to obese patients
  effect on body weight: significant reduction in body weight
[3]; ICV, animals fed ad libitum
  food intake following injection of neuropeptide Y: significantly reduces food intake
[3]; intracerebroventricular route (ICV), fasted rats
  feeding: markedly inhibits feeding

## insulin
[2]; first two weeks of intensive insulin treatment
  body weight lost, average: 1.3 ± 0.6 kg
[2]; mean±SEM of patients (no data for MP), Second Insulin treatment, 2 weeks
  Weight Change: +1.0 ± 1.0 kg
[2]; mean±SEM of patients (no data for MP), after Second Insulin treatment, 2 weeks
  Patient Weight: 98.2 ± 5.0 kg
[2]; mean±SEM of patients, First Insulin treatment, 2 weeks
  Weight Change: -1.3 ± 0.6 kg
[2]; mean±SEM of patients, after First Insulin treatment, 2 weeks
  Patient Weight: 96.4 ± 6.0 kg
[2]; patient four, First Insulin treatment, 2 weeks
  Weight Change: -2.0 kg
[2]; patient four, Second Insulin treatment, 2 weeks
  Weight Change: 0.0 kg
[2]; patient four, after First Insulin treatment, 2 weeks
  Patient Weight: 111.0 kg
[2]; patient four, after Second Insulin treatment, 2 weeks
  Patient Weight: 108.0 kg
[2]; patient one, First Insulin treatment, 2 weeks
  Weight Change: -2.5 kg
[2]; patient one, Second Insulin treatment, 2 weeks
  Weight Change: 3.0 kg
[2]; patient one, after First Insulin treatment, 2 weeks
  Patient Weight: 99.0 kg
[2]; patient one, after Second Insulin treatment, 2 weeks
  Patient Weight: 95.0 kg
[2]; patient three, First Insulin treatment, 2 weeks
  Weight Change: -0.1 kg
[2]; patient three, after First Insulin treatment, 2 weeks
  Patient Weight: 81.9 kg
[2]; patient two, First Insulin treatment, 2 weeks
  Weight Change: -0.5 kg
[2]; patient two, Second Insulin treatment, 2 weeks
  Weight Change: 0.0 kg
[2]; patient two, after First Insulin treatment, 2 weeks
  Patient Weight: 93.5 kg
[2]; patient two, after Second Insulin treatment, 2 weeks
  Patient Weight: 91.5 kg
[2]; second two weeks of intensive insulin treatment
  body weight change, on average: gained weight

## CCCCCCCCCCCCCC(=O)O[C@@H]1[C@@H](C)[C@@]2(O)[C@@H](C=C(CO)C[C@]3(O)C(=O)C(C)=C[C@@H]23)[C@@H]2C(C)(C)[C@]12OC(C)=O [TPA, 12-O-tetradecanoylphorbol-13-acetate]
[4]
  release of GLP-1: significant increases in release of GLP-1
